Assay results as given in patent US8735406B2, “8-oxodihydropurine derivative” (Dainippon Sumitomo Pharma Co., Ltd., priority 2009, dated 2014).
Read-outs that look alike come from different tables or passages of the source.

Target: T1, FAAH (Rattus norvegicus, UniProt P97612)
T1 construct: Preparation of Rat Brain Membranes Preparations (FAAH Enzyme Solution); from tissue; host or cells: rat cerebrum (brain membrane preparation)
T1 sequence (P97612 1-579): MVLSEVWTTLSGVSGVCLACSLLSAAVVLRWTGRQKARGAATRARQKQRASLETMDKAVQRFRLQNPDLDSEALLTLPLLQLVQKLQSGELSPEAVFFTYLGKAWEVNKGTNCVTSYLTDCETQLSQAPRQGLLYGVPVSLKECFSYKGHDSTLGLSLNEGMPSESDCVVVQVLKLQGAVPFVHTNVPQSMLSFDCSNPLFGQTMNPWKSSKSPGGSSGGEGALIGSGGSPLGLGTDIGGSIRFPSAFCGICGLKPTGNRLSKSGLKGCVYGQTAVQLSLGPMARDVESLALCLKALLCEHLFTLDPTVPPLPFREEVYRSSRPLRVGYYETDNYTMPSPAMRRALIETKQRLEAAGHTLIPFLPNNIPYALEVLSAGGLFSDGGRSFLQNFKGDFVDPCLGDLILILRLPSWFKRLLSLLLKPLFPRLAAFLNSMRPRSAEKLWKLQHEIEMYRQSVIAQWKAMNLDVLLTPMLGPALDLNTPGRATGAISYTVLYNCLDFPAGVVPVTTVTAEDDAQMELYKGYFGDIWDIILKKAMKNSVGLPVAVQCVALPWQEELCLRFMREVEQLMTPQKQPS
Test: Determination of FAAH inhibitory activity in rat (rat brain membrane preparations, [3H]-anandamide hydrolysis)
Format: biochemical
Details: rat brain membrane preparations; for IC50: read-out: FAAH Inhibition IC50
Outline: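 Compounds tested from 0.1 nM to 1 μM to derive IC50 against FAAH hydrolysis in rat brain membrane preparations (100 μg/mL). A 10-min 37 °C preincubation was followed by 10 min with [3H]-anandamide (2 nM) mixed with 2 μM unlabelled anandamide. Radioactive ethanolamine was extracted into the water/methanol layer and counted.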

[1] = 100 nM test substance, read-out: FAAH Inhibition, Inhibition Rate at 100 nM
[2] = at 100 nM, read-out: FAAH Inhibition Inhibition Rate at 100 nM

SMILES: Cn1c(=O)n(C(=O)N2CCCC2)c2nc(-c3ccc(OC(F)(F)F)cc3)ncc21 [Example 237, 7-Methyl-9-(pyrrolidin-1-ylcarbonyl)-2-[4-(trifluoromethoxy)phenyl]-7,9-dihydro-8H-purine-8-one]
- inhibition at 0.1 µM [1]: 98%
- IC50 (test substance 0.1 nM to 1 μM): 32 nM

SMILES: Cn1c(=O)n(C(=O)N2CCCC2)c2cnc(C3CCCCC3)nc21 [Example 316, 2-cyclohexy-9-methyl-7-(pyrrolidin-1-ylcarbonyl)-7,9-dihydro-8H-purine-8-one]
- inhibition at 0.1 µM [1]: 80%
- IC50 (test substance 0.1 nM to 1 μM): 55 nM

SMILES: CN(C)C(=O)n1c(=O)n(C)c2cnc(-c3ccc(OCC(F)(F)F)cc3)nc21 [Example 334, N,N,7-Trimethyl-8-oxo-2-[4-(2,2,2-trifluoroethoxy)phenyl]-7,8-dihydro-9H-purine-9-carboxamide]
- inhibition at 0.1 µM [1]: 88%
- IC50 (test substance 0.1 nM to 1 μM): 25 nM

SMILES: COc1ccc(-c2ncc3c(n2)n(C(=O)N2CCCC2)c(=O)n3C)cc1 [Example 231, 2-(4-Methoxyphenyl)-7-methyl-9-(pyrrolidin-1-ylcarbonyl)-7,9-dihydro-8H-purine-8-one]
- inhibition at 0.1 µM [1]: 91%
- IC50 (test substance 0.1 nM to 1 μM): 51 nM

SMILES: COc1cccc(-c2ncc3c(n2)n(C)c(=O)n3C(=O)N(C)CCOc2ccc(Cl)cc2)c1 [Example 77, N-[2-(4-Chlorophenoxy)ethyl]-2-(3-methoxyphenyl)-N,9-dimethyl-8-oxo-8,9-dihydro-7H-purine-7-carboxamide]
- inhibition at 0.1 µM [1]: 116%
- IC50 (test substance 0.1 nM to 1 μM): 3 nM

SMILES: COCc1ncc2c(n1)n(C)c(=O)n2C(=O)N1CC[C@@H](Oc2ccccc2C)C1 [Example 476]
- inhibition at 0.1 µM [1]: 76%
- IC50 (test substance 0.1 nM to 1 μM): 57 nM

SMILES: Cn1c(=O)n(C(=O)N2CCN(c3ccc(C(F)(F)F)cc3)CC2)c2cnc(-c3ccccc3)nc21 [Example 134, 9-Methyl-2-phenyl-7-({4-[4-(trifluoromethyl)phenyl]piperazin-1-yl}carbonyl)-7,9-dihydro-8H-purine-8-one]
- inhibition at 0.1 µM [1]: 96%
- IC50 (test substance 0.1 nM to 1 μM): 7 nM

SMILES: CCCn1c(=O)n(C(=O)N2CC(c3ccccc3)C2)c2cnc(COC)nc21 [Example 658, 2-(Methoxymethyl)-7-[(3-phenylazetidin-1-yl)carbonyl]-9-propyl-7,9-dihydro-8H-purine-8-one]
- inhibition at 0.1 µM [2]: 86%
- IC50: 15 nM

SMILES: Cn1c(=O)n(C(=O)N2CCC2)c2cnc(Cc3cccc(C(F)(F)F)c3)nc21 [Example 379, 7-(Azetidin-1-ylcarbonyl)-9-methyl-2-[3-(trifluoromethyl)benzyl]-7,9-dihydro-8H-purine-8-one]
- inhibition at 0.1 µM [1]: 96%
- IC50 (test substance 0.1 nM to 1 μM): 13 nM

SMILES: Cn1c(=O)n(C(=O)N2CCCC2)c2cnc(-c3ccnc(Cl)c3)nc21 [Example 214, 2-(2-Chloropyridin-4-yl)-9-methyl-7-(pyrrolidin-1-ylcarbonyl)-7,9-dihydro-8H-purine-8-one]
- inhibition at 0.1 µM [1]: 99%
- IC50 (test substance 0.1 nM to 1 μM): 18 nM

SMILES: Cn1c(=O)n(C(=O)N2CCCC2)c2cnc(-c3cc4ccccc4o3)nc21 [Example 216]
- inhibition at 0.1 µM [1]: 99%
- IC50 (test substance 0.1 nM to 1 μM): 7 nM

SMILES: Cc1cccc(Cc2ncc3c(n2)n(C)c(=O)n3C(=O)N2CCC2)c1 [compound 371]
- inhibition at 0.1 µM [1]: 43%
- IC50 (test substance 0.1 nM to 1 μM): 149 nM

SMILES: Cn1c(=O)n(C(=O)N2CCCC2)c2cnc(Cc3ccc(C#N)cc3)nc21 [compound 264]
- inhibition at 0.1 µM [1]: 91%
- IC50 (test substance 0.1 nM to 1 μM): 54 nM

SMILES: Cc1cc(C)c(CCc2ncc3c(n2)n(C(=O)N2CCC2)c(=O)n3C)c(C)c1 [compound 566]
- inhibition at 0.1 µM [1]: 96%
- IC50 (test substance 0.1 nM to 1 μM): 10 nM

SMILES: COc1cccc(-c2ncc3c(n2)n(C(=O)N2CCC2)c(=O)n3C)c1 [compound 355]
- inhibition at 0.1 µM [1]: 76%
- IC50 (test substance 0.1 nM to 1 μM): 86 nM

SMILES: CCOc1cc(F)cc(-c2ncc3c(n2)n(C)c(=O)n3C(=O)N2CCCC2)c1 [compound 193]
- inhibition at 0.1 µM [1]: 102%
- IC50 (test substance 0.1 nM to 1 μM): 42 nM

SMILES: COc1cccc(-c2ncc3c(n2)n(C)c(=O)n3C(=O)N2CC[C@@H](OC)C2)c1 [Example 47]
- inhibition at 0.1 µM [1]: 16%
- IC50 (test substance 0.1 nM to 1 μM): > 100 nM

SMILES: COCc1ncc2c(n1)n(C)c(=O)n2C(=O)N1CC(COc2ccc(F)cc2)C1 [Example 492, 7-({3-[(4-Fluorophenoxy)methyl]azetidin-1-yl}carbonyl)-2-(methoxymethyl)-9-methyl-7,9-dihydro-8H-purine-8-one]
- inhibition at 0.1 µM [1]: 103%
- IC50 (test substance 0.1 nM to 1 μM): 2 nM

SMILES: CCCc1ccc(-c2ncc3c(n2)n(C)c(=O)n3C(=O)N2CCCC2)cc1 [compound 180]
- inhibition at 0.1 µM [1]: 99%
- IC50 (test substance 0.1 nM to 1 μM): 38 nM

SMILES: Cn1c(=O)n(C(=O)N2CC(c3ccc(F)cc3)C2)c2cnc(C3CC3)nc21 [compound 621]
- inhibition at 0.1 µM [2]: 78%
- IC50: 10 nM

SMILES: Cn1c(=O)n(C(=O)N2CCC2)c2nc(CCc3ccc(F)cc3)ncc21 [Example 587, 9-(Azetidin-1-ylcarbonyl)-2-[2-(4-fluorophenyl)ethyl]-7-methyl-7,9-dihydro-8H-purine-8-one]
- inhibition at 0.1 µM [1]: 68%
- IC50 (test substance 0.1 nM to 1 μM): 51 nM

SMILES: COc1cccc(-c2ncc3c(n2)n(C)c(=O)n3C(=O)N2CCCCC2)c1 [Example 49, 2-(3-Methoxyphenyl)-9-methyl-7-(piperidin-1-ylcarbonyl)-7,9-dihydro-8H-purine-8-one]
- inhibition at 0.1 µM [1]: 99%
- IC50 (test substance 0.1 nM to 1 μM): 6 nM

SMILES: Cn1c(=O)n(C(=O)N2CCCC2)c2nc(Cc3ccc(F)c(F)c3)ncc21 [Example 293, 2-(3,4-Difluorobenzyl)-7-methyl-9-(pyrrolidin-1-ylcarbonyl)-7,9-dihydro-8H-purine-8-one]
- inhibition at 0.1 µM [1]: 97%
- IC50 (test substance 0.1 nM to 1 μM): 24 nM

SMILES: Cn1c(=O)n(C(=O)N2CCCC2)c2cnc(CCc3ccccc3)nc21 [Example 11, 9-Methyl-2-(2-phenylethyl)-7-(pyrrolidin-1-ylcarbonyl)-7,9-dihydro-8H-purine-8-one]
- inhibition at 0.1 µM [1]: 79%
- IC50 (test substance 0.1 nM to 1 μM): 66 nM

SMILES: COCc1ncc2c(n1)n(C)c(=O)n2C(=O)N1CC(c2ccccc2F)C1 [Example 441, 7-{[3-(2-Fluorophenyl)azetidin-1-yl]carbonyl}-2-(methoxymethyl)-9-methyl-7,9-dihydro-8H-purine-8-one]
- inhibition at 0.1 µM [1]: 74%
- IC50 (test substance 0.1 nM to 1 μM): 37 nM

SMILES: COCc1ncc2c(n1)n(C)c(=O)n2C(=O)N1CC(Oc2ccccc2F)C1 [Example 479, 7-{[3-(2-Fluorophenoxy)azetidin-1-yl]carbonyl}-2-(methoxymethyl)-9-methyl-7,9-dihydro-8H-purine-8-one]
- inhibition at 0.1 µM [1]: 50%
- IC50 (test substance 0.1 nM to 1 μM): 101 nM

SMILES: Cn1c(=O)n(C(=O)N2CCCC2)c2cnc(Cc3ccc(F)c(F)c3)nc21 [compound 269]
- inhibition at 0.1 µM [1]: 96%
- IC50 (test substance 0.1 nM to 1 μM): 42 nM

SMILES: CCCc1ncc2c(n1)n(C(=O)N1CC(c3ccc(F)cc3)C1)c(=O)n2C [Example 636]
- inhibition at 0.1 µM [2]: 94%
- IC50: 78 nM

SMILES: CN(C)C(=O)n1c(=O)n(C)c2cnc(CCCOc3cccc(C(F)(F)F)c3)nc21 [Example 399]
- inhibition at 0.1 µM [1]: 95%
- IC50 (test substance 0.1 nM to 1 μM): 6 nM

SMILES: CN(C)C(=O)n1c(=O)n(C)c2cnc(CCc3cc(F)cc(F)c3)nc21 [compound 528]
- FAAH Inhibition, Inhibition Rate at 100 nM (100 nM test substance, 0.1 µM): 72%
- IC50 (test substance 0.1 nM to 1 μM): 55 nM

SMILES: COc1ccccc1Cc1ncc2c(n1)n(C)c(=O)n2C(=O)N1CCCC1 [compound 260]
- inhibition at 0.1 µM [1]: 84%
- IC50 (test substance 0.1 nM to 1 μM): 58 nM

SMILES: CCN(C)C(=O)n1c(=O)n(C)c2cnc(CCc3cccc(C)c3)nc21 [compound 556]
- inhibition at 0.1 µM [1]: 78%
- IC50 (test substance 0.1 nM to 1 μM): 44 nM

SMILES: Cn1c(=O)n(C(=O)N2CC(c3cccc(F)c3)C2)c2cnc(C3CC3)nc21 [compound 622]
- inhibition at 0.1 µM [2]: 116%
- IC50: 1 nM

SMILES: CCCn1c(=O)n(C(=O)N(C)C)c2nc(CCc3ccccc3F)ncc21 [Example 646, 2-[2-(2-Fluorophenyl)ethyl]-N,N-dimethyl-8-oxo-7-propyl-7,8-dihydro-9H-purine-9-carboxamide]
- inhibition at 0.1 µM [2]: 117%
- IC50: 13 nM

SMILES: COc1ccc(F)cc1-c1ncc2c(n1)n(C)c(=O)n2C(=O)N1CCCC1 [compound 195]
- inhibition at 0.1 µM [1]: 83%
- IC50 (test substance 0.1 nM to 1 μM): 66 nM

SMILES: Cn1c(=O)n(C(=O)N2CC(c3cccc(F)c3)C2)c2nc(C3CC3)ncc21 [Example 632]
- inhibition at 0.1 µM [2]: 84%
- IC50: 31 nM

SMILES: COCc1ncc2c(n1)n(C1CC1)c(=O)n2C(=O)N1CC(c2ccc(F)cc2)C1 [compound 664]
- inhibition at 0.1 µM [2]: 102%
- IC50: 10 nM

SMILES: Cc1cccc(OCc2ncc3c(n2)n(C(=O)N2CCC2)c(=O)n3C)c1 [Example 417]
- inhibition at 0.1 µM [1]: 66%
- IC50 (test substance 0.1 nM to 1 μM): 33 nM

SMILES: Cn1c(=O)n(C(=O)N2CCCC2)c2cnc(Cc3ccccc3)nc21 [Example 253, 2-benzyl-9-methyl-7-(pyrrolidin-1-ylcarbonyl)-7,9-dihydro-8H-purine-8-one]
- inhibition at 0.1 µM [1]: 100%
- IC50 (test substance 0.1 nM to 1 μM): 5 nM

SMILES: Cn1c(=O)n(C(=O)N2CCCC2)c2nc(-c3ccc(-c4ccccc4)cc3)ncc21 [Example 239, 2-(Biphenyl-4-yl)-7-methyl-9-(pyrrolidin-1-ylcarbonyl)-7,9-dihydro-8H-purine-8-one]
- inhibition at 0.1 µM [1]: 89%
- IC50 (test substance 0.1 nM to 1 μM): 52 nM
